One series concerns glaucoma. The note with it: after stopping topical medication; cited from earlier work.
The conditions of series [1]: 0.1% ophthalmic suspension, 1 drop 4 times a day (approximately 200 μg per day); cited from earlier work.
Another series has as its system patients with glaucoma. As to the kind of experiment: Loss of IOP lowering upon cessation of chronic topical anti-glaucoma medication (Example A). Type of series: in vivo, human. Particulars: for mean IOP from baseline on day 28: day 28, after four weeks of topical medication; for mean IOP from baseline on day 30: day 30, after 2 days with no medication. An excerpt: To examine loss or reduction of a therapeutic effect (i.e. IOP lowering) upon cessation of chronic medication administration used to treatment a chronic ocular condition, three different populations of patients with glaucoma were examined.
1. A population of twenty patients with glaucoma was examined.

Series [2] has as its system VEGF165-induced retinal vasculopathy. As to the kind of experiment: Remnant effect after intravitreal triamcinolone acetonide, VEGF165-induced retinal vasculopathy (Example 9). Type of series: in vivo, Dutch-belted rabbits. Particulars: 48 hours after VEGF165; 4 mg TA removed after one minute. As for the experimental part: An experiment was carried out which determined existence of a remnant effect (i.e. a therapeutic effect of the active agent when a therapeutic amount of the active agent was not longer present) of intravitreal triamcinolone. Six Dutch-belted rabbits were divided into two groups of three each. After standard pars plana vitrectomy, one group received 4 mg of the glucocorticoid triamcinolone acetonide (TA) in a 0.1 ml volume (Kenalog® 40), and the other group received 0.1 ml of a 5% PLGA (poly lactic/glycolic acid) solution. One minute later the TA or PLGA was removed with a subtotal vitrectomy and soft tip needle. Forty-eight hours after the surgery VEGF165 (500 ng/50 μl) was injected intravitreally via a 29 gauge needle to induce retinal vasculopathy and assess a pharmacological action of any remnant effect of either TA or PLGA. Assessment of retinal color fundus imaging, fluorescein angiography (FA), and fluorometry was made upon VEGF administration and 48 hours following such administration to assess leak from the retina vasculature as a result of VEGF165 administration, and the effect of either TA or PLGA on such leakage.

As for `CC[C@@H]1C(=O)OC[C@@H]1Cc1cncn1C` [pilocarpine], the “washout period (return to baseline IOP) of topical anti-glaucoma medication” value (“washout period (return to baseline IOP)” for short) in the series with glaucoma is “about 48 hours”. As for `C[C@@H]1C[C@H]2[C@@H]3CCC4=CC(=O)C=C[C@]4(C)[C@@]3(F)[C@@H](O)C[C@]2(C)[C@@]1(O)C(=O)CO` [dexamethasone], the “share of the topical dose that reaches the anterior segment” value in series [1] is recorded as “about 1%”. `CC(C)(C)NC[C@H](O)COc1nsnc1N1CCOCC1` [timolol]: in the series on patients with glaucoma, the “mean IOP from baseline on day 28” value is −4 mm Hg and the “mean IOP from baseline on day 30” value is on record as −2 mm Hg. For the compound `CC1(C)O[C@@H]2C[C@H]3[C@@H]4CCC5=CC(=O)C=C[C@]5(C)[C@@]4(F)[C@@H](O)C[C@]3(C)[C@]2(C(=O)CO)O1` [TA, triamcinolone acetonide], in series [2], the “Fluorophotometry area under the curve, change from baseline” value is given as 3±65%. For the compound `CCN[C@H]1C[C@H](C)S(=O)(=O)c2sc(S(N)(=O)=O)cc21` [dorzolamide], the “washout period (return to baseline IOP)” value in the series with glaucoma is reported as “two to four”.

Consider `CNC[C@H](O)c1ccc(O)c(O)c1` [epinephrine], for which the “washout period (return to baseline IOP)” value in the series on glaucoma is reported as “about three”. In the case of `CCNC(=O)CCC/C=C\C[C@@H]1[C@@H](/C=C/[C@@H](O)CCc2ccccc2)[C@H](O)C[C@@H]1O` [Lumigan, Bimatoprost], in the series on patients with glaucoma, the “mean IOP from baseline on day 28” value was −8 mm Hg and the “mean IOP from baseline on day 30” value is recorded as −6 mm Hg. On to `Brc1c(NC2=NCCN2)ccc2nccnc12` [brimonidine], for which the “mean IOP from baseline on day 14” value in the series with patients with glaucoma (day 14, after 14 days of topical medication) is −2 mm Hg. For the same compound, in the series with patients with glaucoma (day 15, after 24 hours with no medication), the “mean IOP from baseline on day 15” value is listed as −0.8 mm Hg. In addition, the “washout period (return to baseline IOP)” value in the series on glaucoma is “two to four and five”.

Source of the values: patent US9233071B2, “Methods for treating retinopathy with extended therapeutic effect” (Allergan, Inc., priority 2004, dated 2016).
